Source: US8415383B2, “Substituted benzamidines as antibacterial agents” (Biota Scientific Management Pty Ltd, priority 2007, dated 2013)
Values after ≈ are worked out from the molar mass of the structure shown.

Test system: Staphylococcus aureus ATCC29213
Test: Minimal Inhibitory Concentration (MIC) testing, broth microdilution or agar dilution (CLSI)
Type: cell-based
Details: Staphylococcus aureus ATCC29213; MIC scored as class; read-out: Staphylococcus aureus MICs Activity
Experimental: Minimal Inhibitory Concentration (MIC) Testing
Compounds of this invention were tested for antimicrobial activity by susceptibility testing in liquid or on solid media. MICs for compounds against each strain were determined by the broth microdilution or agar dilution method according to the guidelines of the Clinical Laboratories and Standards Institute, formerly the National Committee for Clinical Laboratory Standards (Clinical Laboratories and Standards Institute. Methods for Dilution Antimicrobial Susceptibility Tests for Bacteria That Grow Aerobically; Approved Standard—Seventh Edition. Document M7-A7. CLSI, Wayne, Pa., 2006; Clinical Laboratories and Standards Institute.
Activities were scored as ‘A’ if the MIC was less than or equal to 0.125 micrograms/ml, ‘B’ if the MIC was 0.25 to 4 micrograms/ml and ‘C’ if the MIC was greater than 4 micrograms/ml.

Compound	MIC [µg/mL]
COc1ncc(-c2csc(COc3ccc(F)c(/C(N)=N/O)c3F)n2)s1 [Example 9, 2,6-difluoro-N′-hydroxy-3-((2′-methoxy-4,5′-bithiazol-2-yl)methoxy) benzimidamide]	< 0.125
CO/N=C(\N)c1c(F)ccc(OCc2nc3cc(Cl)ccc3s2)c1F [Example 2, 3-[(5-Chloro-1,3-benzothiazol-2-yl)methoxy]-2,6-difluoro-N′-methoxybenzenecarboximidamide]	0.25 to 4 (≈ 0.651 to 10.4 µM)
N/C(=N\O)c1c(F)ccc(OCc2nc(-c3ccc(Cl)cc3)ns2)c1F [Example 5, 3-[3-(4-Chlorophenyl)-[1,2,4]thiadiazol-5-ylmethoxy]-2,6-difluoro-N-hydroxybenzamidine]	< 0.125
CS(=O)(=O)/N=C(\N)c1c(F)ccc(OCc2nc(-c3ccc(Cl)cc3)ns2)c1F [Example 8]	> 4
N=C(N)c1c(F)ccc(OCc2nc3cc(Cl)ccc3s2)c1F [Example 3, 3-[(5-Chloro-1,3-benzothiazol-2-yl)methoxy]-2,6-difluorobenzenecarboximidamide]	> 4
CC(=O)O/N=C(\N)c1c(F)ccc(OCc2nc(-c3ccc(Cl)cc3)ns2)c1F [Example 6]	0.25 to 4 (≈ 0.57 to 9.11 µM)
N=C(N)c1c(F)ccc(OCc2nc(-c3ccc(Cl)cc3)ns2)c1F [Example 7, 3-((3-(4-chlorophenyl)-1,2,4-thiadiazol-5-yl)methoxy)-2,6-difluorobenzimidamide]	> 4
N/C(=N\O)c1c(F)ccc(OCc2nc3cc(Cl)ccc3s2)c1F [Example 1, 3-[(5-Chloro-1,3-benzothiazol-2-yl)methoxy]-2,6-difluoro-N′-hydroxybenzenecarboximidamide]	> 4

Same assay, conditions: Staphylococcus aureus, ATCC29213, read-out: Staphylococcus aureus MICs Activity

Compound	MIC [µg/mL]
O=c1[nH]c(-c2c(F)ccc(OCc3nc(-c4ccc(Cl)cc4)no3)c2F)no1 [Example 4, 3-{3-[3-(4-Chloro-phenyl)-[1,2,4]oxadiazol-5-ylmethoxy]-2,6-difluorophenyl}-4H-[1,2,4]oxadiazol-5-one]	> 4

Test system: not given
Test: not given
Details: not given

Compound	melting point [°C]
N/C(=N\O)c1c(F)ccc(OCc2nc3cc(Cl)ccc3s2)c1F [Example 1, 3-[(5-Chloro-1,3-benzothiazol-2-yl)methoxy]-2,6-difluoro-N′-hydroxybenzenecarboximidamide]	169 to 170
